Source: patent US11572371B2, “BRD4 inhibitor” (HINOVA PHARMACEUTICALS INC., priority 2017, dated 2023)

Assays:
[1] = target: BRD2(1, 2) (Homo sapiens (Human), UniProt P25440); assay: AlphaScreen binding assay, BRD2 (D1+D2)
Procedure: (§1) Homogeneous time-resolved fluorescence (HTRF) was used to detect the binding of the compound to BRD4 (D1 +D2) and BRDT (D1) proteins, and the AlphaScreen method was used to detect the binding of the compound to BRD2 (D1+D2) and BRD3 (D1+D2) proteins.
(§2) Compounds were screened in vitro, and each concentration of the compound was diluted to 10 different concentrations. Four proteins, BRD4 (D1 +D2), BRDT (D1), BRD2 (D1+D2) and BRD3 (D1+D2), were selected to determine their IC50 values (see Table 1).
(§3) The test compound was dissolved in dimethylsulfoxide (DMSO) and stored at a concentration of 10 mM.
(§4) 6. AlphaScreen detection step:
(§5) 1) Preparing 1-fold concentration of detection buffer
(§6) 1-fold concentration of detection buffer was prepared (modified HEPES buffer).
(§7) 2) Gradient dilution of compounds
(§8) The compound was transferred to the detection plate with an Echo autosampler for gradient dilution, so that the final concentration of dimethyl sulfoxide was 0.1%.
(§9) 3) Preparation of protein solution
(§10) The protein was dissolved in a 1-fold concentration of detection buffer.
(§11) 4) Preparation of substrate solution
(§12) The peptide was dissolved in 1-fold concentration of detection buffer to prepare a substrate solution.
(§13) 5) 5 μL protein solution was transferred to the assay plate, and 5 μL 1-fold concentration of detection buffer was placed in the negative control well.
(§14) 6) The plate was incubated at room temperature for 15 minutes.
(§15) 7) 5 μL substrate solution was added to each well to start the reaction.
(§16) 8) The plate was incubated at room temperature for 60 minutes.
(§17) 9) Acceptor and donor solutions were prepared in 1-fold concentration of assay buffer.
(§18) 15 μL acceptor and donor solution were added, respectively, and the plate was incubated at room temperature for 60 minutes without light.
(§19) 10) The end point was read in EnSpire and Alpha mode.
(§20) 11) The curve was fitted.
(§21) The experimental data were entered into an Excel file, and the equation (1) was used to get the inhibitory rate. Inh %=(Max−Signal)/(Max−Min)*100 Equation (1)
(§22) The resultant data were entered into GraphPad software, and the IC50 value was obtained using equation (2). Y=Bottom+(Top−Bottom)/(1+10^((LogIC50−X)*Hill Slope)) Equation (2)
(§23) Wherein, Y-axis is the inhibition rate, while X-axis is the compound concentration.

[2] = target: BRD3(1, 2) (Homo sapiens (Human), UniProt Q15059); assay: AlphaScreen binding assay, BRD3 (D1+D2)
Procedure: as §1, §2, §3, §4, §5, §6, §7, §8, §9, §10, §11, §12, §13, §14, §15, §16, §17, §18, §19, §20, §21, §22, §23

[3] = system: CWR22RV1 cells; assay: Inhibition of CWR22RV1 cell proliferation (CCK-8); format: cell-based; conditions: Homo sapiens, CWR22Rv1, 144 h; cultured for 6 days, CCK-8; read-out: IC50 on CWR22RV1
Procedure: Test Example 2 Biological Determination of the Inhibitory Effect of the Compound on CWR22RV1 Cell Proliferation
Experimental Materials: • CWR22RV1 cell line (Cell bank of Chinese Academy of Sciences, TCHu100) • FBS (Gibco, Cat. No. 10099-141) • 0.01M PBS (Biosharp, Cat. No. 162262) • RIPM1640 (Hyclone, Cat. No. 308090.01) • Penicillin-Streptomycin (Hyclone, Cat. No. SV30010) • Cell counting kit-8(Signalway Antibody, Cat. No. CP002) • DMSO (Sigma, Cat. No. D5879) • Centrifuge Tube, 15 ml (Excell Bio, Cat. No. CS015-0001) • Cell Culture Dish, (Excell Bio, Cat. No. CS016-0128) • 96-well cell culture cluster (Corning, Cat. No. 3599)
(1) CWR22RV1 cells were subcultured with cell culture medium, and well-growth cells were inoculated in 96-well plates, with 80 μL per well. The number of cells in each well was 1500, and the plate was cultured overnight in a 37° C., 5% CO2 cell incubator.
(2) The drug was prepared as a 30 mM stock solution using dimethyl sulfoxide (DMSO). before use, the stock solution was diluted 3 times with DMSO, and then diluted by a 3 times gradient to obtain 9 concentration gradients. The compound at each concentration was further diluted 200 times with the culture solution (to ensure that the DMSO concentration in the culture system was 0.1%), and each concentration was repeated 2 wells. 20 μL of the diluted compound was added to the cell culture wells (with final concentrations of 10 μM, 3.3 μM, 1.1 μM . . . ), and gently shaked to mix. In addition, three negative control wells containing only cells and three blank control wells containing only culture medium (6 wells each containing 20 μL DMSO 200-fold diluted with culture medium) were set.
(1) After being cultured for 6 days, 10 μL CCK-8 was added to each well, and the cells were further cultured in a 5% CO2 cell incubator at 37° C. for 2.5 hours.
(2) The absorbance (OD value) was measured at 450 nm with a multifunctional microplate reader.
(3) The data were analyzed with the Dose-response-inhibition equation in the software GraphPad Prism6, and IC50 values were obtained.

[4] = target: BRDT(D1) (Homo sapiens (Human), UniProt Q58F21); assay: HTRF binding assay, BRDT (D1)
Procedure: as §1, §2
BRDT(D1)(Active Motif, Cat.No.31450)
as §3
5. Homogeneous Time-Resolved Fluorescence Detection Steps:
1) All compounds were gradiently diluted on Echo plate according to the arrangement of the test plate. The final concentration of DMSO was 0.1%.
2) Compounds or DMSO was transferred to a 384-well assay plate by using Echo autosampler.
3) 2× concentration of protein and peptide mixture was added to the assay plate.
4) 2× concentration of the mixed detection solution was added to the assay plate and shaken for 30 seconds.
5) The plate was incubated at room temperature for 2 hours.
6) The fluorescence signal was read on Envision microplate reader (with excitation light wavelength at 340 nm and emission light wavelength at 615 nm and 665 nm).
as §21, §22, §23

[5] = target: BRD4(1, 2) (Homo sapiens (Human), UniProt O60885); assay: HTRF binding assay, BRD4 (D1+D2)
Excerpt: The experimental data were entered into an Excel file, and the equation (1) was used to get the inhibitory rate. Inh %=(Max−Signal)/(Max−Min)*100 Equation (1) […]

Chain of BRD2(1, 2) (P25440 65-459): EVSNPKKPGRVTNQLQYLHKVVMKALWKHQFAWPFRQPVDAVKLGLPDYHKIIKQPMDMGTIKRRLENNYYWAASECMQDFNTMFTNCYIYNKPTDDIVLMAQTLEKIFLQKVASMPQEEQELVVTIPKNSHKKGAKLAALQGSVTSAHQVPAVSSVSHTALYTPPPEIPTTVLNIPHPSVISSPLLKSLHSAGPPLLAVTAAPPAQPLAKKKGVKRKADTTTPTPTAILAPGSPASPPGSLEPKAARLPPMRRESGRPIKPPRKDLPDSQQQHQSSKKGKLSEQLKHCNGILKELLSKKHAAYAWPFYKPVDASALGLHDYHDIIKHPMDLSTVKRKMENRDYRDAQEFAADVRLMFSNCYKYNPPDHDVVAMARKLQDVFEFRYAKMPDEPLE
Chain of BRD3(1, 2) (Q15059 29-417): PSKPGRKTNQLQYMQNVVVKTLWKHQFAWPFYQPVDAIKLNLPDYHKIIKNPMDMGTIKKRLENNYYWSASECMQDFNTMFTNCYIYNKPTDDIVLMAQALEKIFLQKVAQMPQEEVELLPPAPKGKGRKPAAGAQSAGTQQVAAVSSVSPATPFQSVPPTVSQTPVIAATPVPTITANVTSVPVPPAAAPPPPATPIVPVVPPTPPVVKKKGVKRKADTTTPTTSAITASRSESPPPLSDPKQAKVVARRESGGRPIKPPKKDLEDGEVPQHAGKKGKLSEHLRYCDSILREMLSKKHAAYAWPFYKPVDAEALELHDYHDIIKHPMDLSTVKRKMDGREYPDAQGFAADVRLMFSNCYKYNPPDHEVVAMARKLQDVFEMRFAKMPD

Question: Which results are given for `CCOCc1nnc(C[C@@H]2N=C(c3ccc(Cl)cc3)c3c(sc(C)c3C)-n3c(C)nnc32)o1` [Compound 6, (S)-2-((4-(4-chlorophenyl)-2,3,9-trimethyl-6H-thieno[3,2-f][1,2,4]triazolo[4,3-a][1,4]diaza-6-yl)methyl)-5-(ethoxylmethyl)-1,3,4-oxodiazole]?
Answer: IC50 [1]: 15 nM; IC50 [2]: 20 nM; IC50 [3]: 61 nM; IC50 [4]: 46 nM

Question: What does the source list for `Cc1sc2c(c1C)C(c1ccc(Cl)cc1)=N[C@@H](Cc1nnc(C(C)C)o1)c1nnc(C)n1-2` [Compound 19, (S)-2-((4-(4-chlorophenyl)-2,3,9-trimethyl-6H-thieno[3,2-f][1,2,4]triazolo[4,3-a][1,4]diaza-6-yl)methyl)-5-isopropyl-1,3,4-oxodiazole]?
Answer: IC50 [1]: 8.3 nM; IC50 [2]: 17 nM; IC50 [3]: 28 nM; IC50 [4]: 51 nM

Question: For `Cc1sc2c(c1C)C(c1ccc(Cl)cc1)=N[C@@H](Cc1nnc(C3CC3)o1)c1nnc(C)n1-2` [Compound 20, (S)-2-((4-(4-chlorophenyl)-2,3,9-trimethyl-6H-thieno[3,2-f][1,2,4]triazolo[4,3-a][1,4]diaza-6-yl)methyl)-5-cyclopropyl-1,3,4-oxodiazole], which IC50 [1] is on record?
Answer: The IC50 was 10.1 nM.

Question: What about the IC50 [2] of the same compound?
Answer: Its IC50 is 20 nM.

Question: What about the IC50 [3] of the same compound?
Answer: The IC50 was 37 nM.

Question: What about the IC50 [4] of the same compound?
Answer: The IC50 was 49 nM.

Question: Which results are given for `CCc1nnc(C[C@@H]2N=C(c3ccc(Cl)cc3)c3c(sc(C)c3C)-n3c(C)nnc32)o1` [Compound 22, (S)-2-((4-(4-chlorophenyl)-2,3,9-trimethyl-6H-thieno[3,2-f][1,2,4]triazolo[4,3-a][1,4]diaza-6-yl)methyl)-5-ethyl-1,3,4-oxodiazole]?
Answer: IC50 [1]: 10.8 nM; IC50 [2]: 21 nM; IC50 [3]: 47 nM; IC50 [5]: 25 nM; IC50 [4]: 46 nM
